Results on 16 molecules are retold here after US6057311A, “Benzodiazonine derivatives binding to cholecystokinin or gastrin receptors” (James Black Foundation Limited, priority 1996, dated 2000).

For one experiment, the target named is T1, CCKB receptor (Mus musculus, UniProt P56481).
T1 construct: The cortex was dissected, weighed and homogenised in 40 ml ice-cold buffer; tissue Charles River (animals); host or cells: cerebral cortex of male CD1 mice, membranes
T1 sequence (P56481 1-453): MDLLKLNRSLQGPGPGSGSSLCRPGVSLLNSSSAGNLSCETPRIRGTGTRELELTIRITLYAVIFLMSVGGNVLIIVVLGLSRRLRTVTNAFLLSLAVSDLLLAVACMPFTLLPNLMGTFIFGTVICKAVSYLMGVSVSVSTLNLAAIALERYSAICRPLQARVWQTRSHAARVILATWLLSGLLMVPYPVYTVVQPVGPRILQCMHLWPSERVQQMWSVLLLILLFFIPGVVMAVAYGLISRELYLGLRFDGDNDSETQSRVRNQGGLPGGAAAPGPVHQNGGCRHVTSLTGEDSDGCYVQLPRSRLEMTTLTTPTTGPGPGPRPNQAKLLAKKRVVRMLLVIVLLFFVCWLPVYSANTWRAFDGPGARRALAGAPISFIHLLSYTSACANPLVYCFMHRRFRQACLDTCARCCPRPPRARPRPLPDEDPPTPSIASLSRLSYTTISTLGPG
The experiment in a line: radioligand binding assay at the CCKB receptor in mouse cortical membranes ([125I]-CCK8S). The settings on record: [125I]-CCK8S 200 pM, 150 min at 21±3° C.; for Ki: pH 7.2, read-out: pKi (Mouse cortex) (converted); for pKi (Mouse cortex): pH 7.2. As for the experimental part: The compounds of the examples were tested for binding at the CCKB receptor in mouse cortical membranes by means of a radioligand binding assay. The procedure was as follows:
The whole brains from male mice (CD1 22-25 g; Charles River) were removed and placed in ice-cold buffer (pH7.2@21±3° C.) of the following composition (mM); 10 HEPES, 130 NaCl, 4.7 KCl, 5 MgCl2, 1 EDTA and containing 0.25 g.1^-1 bacitracin. The cortex was dissected, weighed and homogenised in 40 ml ice-cold buffer using a Teflon-in-glass homogeniser. The homogenate was centrifuged at 39,800 g for 20 min at 4° C., the supernatant discarded and the pellet resuspended by homogenisation in fresh buffer. The homogenate was recentrifuged (39,800 g; 20 min @4° C.) and the final pellet was resuspended in HEPES buffer to give a tissue concentration of 2 mg.ml^-1 (original wet weight).
The membranes (400 μl) were incubated for 150 min at 21±3° C. in a final volume of 0.5 ml with HEPES buffer containing [^125 I]-CCK8S (0.05 ml; 200 pM NEN 2200 Ci.mmol^-1) and competing compound. Total and non-specific binding of [^125 I]-CCK8S were defined using 0.05 ml of buffer and 0.05 ml of […] L-365,260, respectively. The assay was terminated by rapid filtration through pre-soaked Whatman GF/B filters using a Brandell Cell harvester. The filters were washed (3×3 ml) with ice-cold 50 mM Tris-HCl (pH7.4@4° C.) and bound radioactivity determined by counting (1 min.) in a gamma-counter.

The target in the next experiment is T2, CCKA (Cavia porcellus, UniProt Q63931).
T2 construct: The pancreatata were removed from male guinea-pigs; from tissue; host or cells: pancreas of male Dunkin Hartley guinea pigs, membranes
T2 sequence (Q63931 1-430): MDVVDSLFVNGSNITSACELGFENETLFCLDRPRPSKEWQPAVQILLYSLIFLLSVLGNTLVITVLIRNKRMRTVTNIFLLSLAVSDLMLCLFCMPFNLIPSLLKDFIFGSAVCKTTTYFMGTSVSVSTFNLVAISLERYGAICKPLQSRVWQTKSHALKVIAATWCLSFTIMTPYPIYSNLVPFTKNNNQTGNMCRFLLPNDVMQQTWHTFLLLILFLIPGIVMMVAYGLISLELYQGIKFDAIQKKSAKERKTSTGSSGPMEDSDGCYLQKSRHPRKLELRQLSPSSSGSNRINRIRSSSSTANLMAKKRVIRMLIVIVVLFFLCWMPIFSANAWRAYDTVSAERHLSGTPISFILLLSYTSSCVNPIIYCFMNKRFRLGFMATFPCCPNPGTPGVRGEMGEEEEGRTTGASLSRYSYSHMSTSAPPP
The experiment in a line: CCKA binding assay, guinea pig pancreas membranes ([125I]-CCK8(S)). The settings on record: [125I]-CCK8(S) 200 pM, 0.375 μM PD134,308, 150 min at 21±3° C.; for Ki: pH 7.2, read-out: pKi (Guinea pig pancreas) (converted); for pKi (Guinea pig pancreas): pH 7.2. On the procedure:
The compounds of the examples were also tested in a CCKA binding assay as follows:
The pancreatata were removed from male guinea-pigs (200-300 g; Dunkin Hartley) and placed in ice-cold HEPES buffer (pH 7.2@21±3° C.). The pancreatata were homogenised in 40 ml ice-cold HEPES buffer using a polytron (Brinkmann, PT10, setting 10) 4×1 second. The homogenate was centrifuged at 39,800 g for 15 min at 4° C. The supernatant was discarded and the pellet re-suspended using a Teflon-in-glass homogeniser in 20 volumes of fresh buffer and re-centrifuged as above. The final pellet was re-suspended using a Teflon-in-glass homogeniser to a tissue concentration of 1 mg.ml^-1 (original wet weight), and filtered through 500 μm pore-size Nytex mesh.
The membranes (400 μl; containing 0.375 μM PD134,308) were incubated for 150 minutes at 21±3° C. in a final volume of 0.5 ml with HEPES buffer containing [^125 I]-CCK8 (S) (50 μl; 200 pM) and competing compound. Total and non-specific binding of [^125 I]-CCK8 (S) were defined using 50 μl of buffer and 50 μl of 100 nM L-364,718 respectively. The assay was terminated by rapid filtration through pre-soaked Whatman GF/B filters using a Brandell Cell Harvester. The filters were washed (3×3 ml) with ice-cold 50 mM Tris HCl (pH 7.4 at 4° C.) and bound radioactivity was determined by counting (1 min) in a gamma counter.

Turning to `CC(C)(C)OC(=O)CN1C(=O)CN(C(=O)Nc2ccc(Cl)c(Cl)c2)CCC(=O)c2ccccc21` [Example 2, 1-tert-butyloxycarbonylmethyl-4-(3,4-dichlorophenyl)-carbamyl-2,7-dioxo-2,3,4,5,6,7-hexahydro-1H-1,4-benzodiazonine], the Ki is 1.26 µM at CCKB receptor and 0.0501 µM on CCKA. Regarding `CC(=O)N1[C@H](CC23CC4CC(CC(C4)C2)C3)C(=O)N(Cc2ccccc2)c2ccccc2C(=O)C[C@H]1C(=O)N(C)CC(=O)O` (single isomer, unassigned; isomer 1) [Example 29], the “pKi (Mouse cortex)” value on CCKB receptor was 5.5. For the same molecule, on CCKA, the “pKi (Guinea pig pancreas)” value is reported as 5.2. Consider `COC(=O)CNC(=O)[C@@H]1CC(=O)c2ccccc2N(Cc2ccccc2)C(=O)[C@@H](CC23CC4CC(CC(C4)C2)C3)N1C(C)=O` [Example 37, (3R,5S)-4-acetyl-3-(1-adamantyl)methyl-1-benzyl-5-methoxycarbonylmethylaminocarbonyl-2,7-dioxo-2,3,4,5,6,7-hexahydro-1H-1,4-benzodiazonine], for which the Ki on CCKB receptor is 1.58 µM; at CCKA, 6.31 µM. In the case of `CC(=O)N1[C@H](CC23CC4CC(CC(C4)C2)C3)C(=O)N(Cc2ccccc2)c2ccccc2C(=O)C[C@H]1C(=O)N1CCC[C@H]1C(=O)O` (single isomer, unassigned; isomer 1) [Example 27], on CCKB receptor, the “pKi (Mouse cortex)” value came out at 5.0. Also, the “pKi (Guinea pig pancreas)” value at CCKA is 5.0. On to `CC(=O)N1[C@H](CC23CC4CC(CC(C4)C2)C3)C(=O)N(Cc2ccccc2F)c2ccccc2C(=O)C[C@H]1C(=O)N[C@@H](C)C(=O)O` [Example 64, (3R,5S)-4-acetyl-3-(1-adamantyl)methyl-1-(2-fluorobenzyl)-5-[(1S)-carboxy]ethylaminocarbonyl-2,7-dioxo-2,3,4,5,6,7-hexahydro-1H-1,4-benzodiazonine], for which the Ki was 0.158 µM on CCKB receptor and 25.1 µM on CCKA. For the molecule `COc1cccc(NC(=O)N2CCCc3ccccc3N(CC(=O)OC(C)(C)C)C(=O)C2)c1` [Example 55, 1-tert-butyloxycarbonylmethyl-4-(3-methoxyphenyl)carbamyl-2-oxo-2,3,4,5,6,7-hexahydro-1H-1,4-benzodiazonine], the Ki at CCKB receptor is 10 µM; on CCKA it was 1 µM. Taken in the same sequence, the figures for `Cc1cccc(NC(=O)N2CCC(=O)c3ccccc3N(CC(=O)N3CCCC3)C(=O)C2)c1` [Example 6, 4-(3-methylphenyl)carbamyl-2,7-dioxo-1-pyrrolidinoyl-methyl-2,3,4,5,6,7-hexahydro-1H-1,4-benzodiazonine] were 10 µM and 5.01 µM.

Take `Cc1cccc(NC(=O)N2CCC(=O)c3ccccc3N(CC(=O)OC(C)(C)C)C(=O)C2)c1` [Example 1, 1-tert-butyloxycarbonylmethyl-4-(3-methylphenyl)carbamyl-2,7-dioxo-2,3,4,5,6,7-hexahydro-1H-1,4-benzodiazonine]: the results for the Ki on CCKB receptor and on CCKA were 10 µM and 0.2 µM, respectively. As for `CC(=O)N1[C@H](CC(C)(C)C)C(=O)N(Cc2ccccc2)c2ccccc2C(=O)C[C@H]1C(=O)O` [Example 19, (3R,5S)-4-acetyl-1-benzyl-3-(2,2-dimethylpropyl)-2,7-dioxo-2,3,4,5,6,7-hexahydro-1H-1,4-benzodiazonine-5-carboxylate], the values for the Ki on CCKB receptor and at CCKA were 7.94 µM and 15.8 µM, respectively.

As for `CC(=O)N1[C@H](CC23CC4CC(CC(C4)C2)C3)C(=O)N(Cc2ccccc2)c2ccccc2C(=O)C[C@H]1C(=O)NCC(=O)O` [Example 22, (3R,5S)-4-acetyl-3-(1-adamantyl)methyl-1-benzyl-5-carboxymethylaminocarbonyl-2,7-dioxo-2,3,4,5,6,7-hexahydro-1H-1,4-benzodiazonine], the Ki on CCKB receptor is 0.2 µM; on CCKA, 10 µM. As for `Cc1cccc(NC(=O)N2CCC(c3ccccc3)c3ccccc3N(Cc3ccccc3)C(=O)C2)c1` (stereo not shown) [Example 50, 1-benzyl-7-phenyl-4-(3-methylphenyl)carbamyl-2-oxo-2,3,4,5,6,7-hexahydro-1H-1,4-benzodiazonine], the “pKi (Mouse cortex)” value at CCKB receptor is reported as 5.8. Also, the “pKi (Guinea pig pancreas)” value on CCKA came to 5.9. For `CC(C)(C)OC(=O)CN1C(=O)CN(C(=O)OCc2ccccc2)CCC(=O)c2ccccc21` [Example 42, 4-benzyloxycarbonyl-1-tert-butyloxycarbonylmethyl-2,7-dioxo-2,3 4,5,6,7-hexahydro-1H-1,4-benzodiazonine], the Ki on CCKB receptor was 20 µM; at CCKA, 10 µM.

With `Cc1cccc(NC(=O)N2CCC(=O)c3ccccc3N(Cc3ccccc3)C(=O)C2)c1` [Example 3, 1-benzyl-4-(3-methylphenyl)carbamyl-2,7-dioxo-2,3,4,5,6,7-hexahydro-1H-1,4-benzodiazonine], the Ki at CCKB receptor was 7.94 µM; on CCKA, 0.316 µM. For `CC(=O)N1[C@H](CC23CC4CC(CC(C4)C2)C3)C(=O)N(Cc2ccccc2)c2ccccc2C(=O)C[C@H]1C(=O)NCC(=O)NS(C)(=O)=O` [Example 41, (3R,5S)-4-acetyl-3-(1-adamantyl)methyl-1-benzyl-5-methanesulphonamidocarboxymethylaminocarbonyl-2,7-dioxo-2,3,4,5,6,7-hexahydro-1H-1,4-benzodiazonine] the same measures were 0.398 µM and 10 µM. On to `COC(=O)[C@@H]1CC(=O)c2ccccc2N(Cc2ccccc2)C(=O)[C@@H](CC23CC4CC(CC(C4)C2)C3)N1C(C)=O` [Example 18, (3R,5S)-methyl 4-acetyl-3-[(1-adamantyl)methyl]-1-benzyl-2,7-dioxo-2,3,4,5,6,7-hexahydro-1H-1,4-benzodiazonine-5-carboxylate], for which, at CCKB receptor, the “pKi (Mouse cortex)” value worked out at 5.5. Also, the “pKi (Guinea pig pancreas)” value on CCKA came out at 5.4.

As to `CCC1CCN(C(=O)c2cc3ccccc3[nH]2)CC(=O)N(Cc2ccccc2)c2ccccc21` (stereo not shown) [Example 53, 1-benzyl-7-ethyl-4-(2-indolecarbonyl)-2-oxo-2,3,4,5,6,7-hexahydro-1H-1,4-benzodiazonine], at CCKA, the Ki is 0.631 µM.
